# In PMC10363032 (Cancer Chemotherapy and Pharmacology, 2023):
# Experiment: safety and tolerability, adverse events (CTCAE version 4.03) in patients
# [1] = after receiving adavosertib, all 30 patients
# [2] = probe cocktail plus adavosertib 26 patients, adavosertib alone on days 1 and 2, 30
# [3] = probe cocktail plus adavosertib n = 26, adavosertib alone n = 30
# Experimental: Safety was appraised throughout the study by the assessment of clinical and laboratory adverse events (AEs; graded by Common Terminology Criteria for Adverse Events [CTCAE], version 4.03), physical examination, and evaluation of vital signs and laboratory data (clinical chemistry and hematology).
# Patients were evaluated according to the treatment received.
compound,measurement,setting,value
C=CCn1c(=O)c2cnc(Nc3ccc(N4CCN(C)CC4)cc3)nc2n1-c1cccc(C(C)(C)O)n1 [adavosertib],"Any AE (causally related), any grade",Total (n = 30),19 (63.3) Number of patients (%)
same,"Any AE (causally related), grade ≥3",Total (n = 30),6 (20.0) Number of patients (%)
same,"Blood and lymphatic system disorders (causally related), any grade",Total (n = 30),4 (13.3) Number of patients (%)
same,"Blood and lymphatic system disorders (causally related), grade ≥3",Total (n = 30),3 (10.0) Number of patients (%)
same,"Blood creatinine increased (causally related), any grade",Total (n = 30),1 (3.3) Number of patients (%)
same,"Blood creatinine increased (causally related), grade ≥3",Total (n = 30),0 Number of patients (%)
same,"Decreased appetite (causally related), any grade",Total (n = 30),1 (3.3) Number of patients (%)
same,"Decreased appetite (causally related), grade ≥3",Total (n = 30),0 Number of patients (%)
same,"Dehydration (causally related), any grade",Total (n = 30),2 (6.7) Number of patients (%)
same,"Dehydration (causally related), grade ≥3",Total (n = 30),1 (3.3) Number of patients (%)
same,"Diarrhea (causally related), any grade",Total (n = 30),14 (46.7) Number of patients (%)
same,"Diarrhea (causally related), grade ≥3",Total (n = 30),3 (10.0) Number of patients (%)
same,"Dizziness (causally related), any grade",Total (n = 30),2 (6.7) Number of patients (%)
same,"Dizziness (causally related), grade ≥3",Total (n = 30),0 Number of patients (%)
same,"Fatigue (causally related), any grade",Total (n = 30),1 (3.3) Number of patients (%)
same,"Fatigue (causally related), grade ≥3",Total (n = 30),0 Number of patients (%)
same,"Flushing (causally related), any grade",Total (n = 30),1 (3.3) Number of patients (%)
same,"Flushing (causally related), grade ≥3",Total (n = 30),0 Number of patients (%)
same,"Gastrointestinal disorders (causally related), any grade",Total (n = 30),17 (56.7) Number of patients (%)
same,"Gastrointestinal disorders (causally related), grade ≥3",Total (n = 30),3 (10.0) Number of patients (%)
same,"General disorders and administration site conditions (causally related), any grade",Total (n = 30),1 (3.3) Number of patients (%)
same,"General disorders and administration site conditions (causally related), grade ≥3",Total (n = 30),0 Number of patients (%)
same,"Hypokalemia (causally related), any grade",Total (n = 30),1 (3.3) Number of patients (%)
same,"Hypokalemia (causally related), grade ≥3",Total (n = 30),1 (3.3) Number of patients (%)
same,"Investigations (causally related), any grade",Total (n = 30),4 (13.3) Number of patients (%)
same,"Investigations (causally related), grade ≥3",Total (n = 30),0 Number of patients (%)
same,"Metabolism and nutrition disorders (causally related), any grade",Total (n = 30),3 (10.0) Number of patients (%)
same,"Metabolism and nutrition disorders (causally related), grade ≥3",Total (n = 30),2 (6.7) Number of patients (%)
same,"Muscle spasms (causally related), any grade",Total (n = 30),1 (3.3) Number of patients (%)
same,"Muscle spasms (causally related), grade ≥3",Total (n = 30),0 Number of patients (%)
same,"Musculoskeletal and connective tissue disorders (causally related), any grade",Total (n = 30),1 (3.3) Number of patients (%)
same,"Musculoskeletal and connective tissue disorders (causally related), grade ≥3",Total (n = 30),0 Number of patients (%)
same,"Nasal ulcer (causally related), any grade",Total (n = 30),1 (3.3) Number of patients (%)
same,"Nasal ulcer (causally related), grade ≥3",Total (n = 30),0 Number of patients (%)
same,"Nausea (causally related), any grade",Total (n = 30),6 (20.0) Number of patients (%)
same,"Nausea (causally related), grade ≥3",Total (n = 30),1 (3.3) Number of patients (%)
same,"Nervous system disorders (causally related), any grade",Total (n = 30),2 (6.7) Number of patients (%)
same,"Nervous system disorders (causally related), grade ≥3",Total (n = 30),0 Number of patients (%)
same,"Neutropenia (causally related), any grade",Total (n = 30),2 (6.7) Number of patients (%)
same,"Neutropenia (causally related), grade ≥3",Total (n = 30),2 (6.7) Number of patients (%)
same,"Pancreatitis (causally related), any grade",Total (n = 30),1 (3.3) Number of patients (%)
same,"Pancreatitis (causally related), grade ≥3",Total (n = 30),1 (3.3) Number of patients (%)
same,"Renal and urinary disorders (causally related), any grade",Total (n = 30),1 (3.3) Number of patients (%)
same,"Renal and urinary disorders (causally related), grade ≥3",Total (n = 30),1 (3.3) Number of patients (%)
same,"Respiratory, thoracic and mediastinal disorders (causally related), any grade",Total (n = 30),1 (3.3) Number of patients (%)
same,"Respiratory, thoracic and mediastinal disorders (causally related), grade ≥3",Total (n = 30),0 Number of patients (%)
same,"Stomatitis (causally related), any grade",Total (n = 30),1 (3.3) Number of patients (%)
same,"Stomatitis (causally related), grade ≥3",Total (n = 30),0 Number of patients (%)
same,"Thrombocytopenia (causally related), any grade",Total (n = 30),2 (6.7) Number of patients (%)
same,"Thrombocytopenia (causally related), grade ≥3",Total (n = 30),0 Number of patients (%)
same,"Vascular disorders (causally related), any grade",Total (n = 30),1 (3.3) Number of patients (%)
same,"Vascular disorders (causally related), grade ≥3",Total (n = 30),0 Number of patients (%)
same,"Vomiting (causally related), any grade",Total (n = 30),7 (23.3) Number of patients (%)
same,"Vomiting (causally related), grade ≥3",Total (n = 30),1 (3.3) Number of patients (%)
same,"Weight decreased (causally related), any grade",Total (n = 30),3 (10.0) Number of patients (%)
same,"Weight decreased (causally related), grade ≥3",Total (n = 30),0 Number of patients (%)
same,patients with treatment-related vomiting,adavosertib alone n = 30,20.0%
same,patients reporting serious AEs (SAEs) considered related to adavosertib,"adavosertib alone on days 1 and 2, two SAEs: acute kidney injury and pancreatitis, led to discontinuation",One
same,patients with treatment-related adverse events,[1],63%
same,patients with treatment-related adverse events grade ≥ 3,[1],20%
same,patients with CTCAE grade ≥ 3 acute kidney injury,any cause,3.3%
same,patients with CTCAE grade ≥ 3 dehydration,any cause,3.3%
same,patients with CTCAE grade ≥ 3 diarrhea,any cause,10.0%
same,patients with CTCAE grade ≥ 3 hypokalemia,any cause,3.3%
same,patients with CTCAE grade ≥ 3 hypoxia,any cause,3.3%
same,patients with CTCAE grade ≥ 3 nausea,any cause,3.3%
same,patients with CTCAE grade ≥ 3 necrotizing soft-tissue infection,any cause,3.3%
same,patients with CTCAE grade ≥ 3 neutropenia,any cause,3.3%
same,patients with CTCAE grade ≥ 3 pancreatitis,any cause,3.3%
same,patients with CTCAE grade ≥ 3 small-intestinal obstruction,any cause,3.3%
same,patients with CTCAE grade ≥ 3 thrombocytopenia,any cause,3.3%
same,patients with CTCAE grade ≥ 3 vomiting,any cause,3.3%
same,patients who experienced AEs,"cocktail alone 33 patients, probe cocktail plus adavosertib 26, adavosertib alone on days 1 and 2, 30",53.3%
same,patients who discontinued treatment because of AEs,"grade 3 diarrhea (related to adavosertib), grade 3 small-bowel obstruction (not related)",Two
same,patients with adverse events of CTCAE grade ≥ 3,[2],16.7%
same,patients with treatment-related AEs,[2],36.7%
same,patients with treatment-related diarrhea,[3],33.3%
same,patients with treatment-related nausea,[3],10.0%
